Like-named read-outs stand apart in the source and are kept apart here.
Assay: GHB toxicokinetic study, i.v. bolus, plasma and urine up to 8 h, noncompartmental analysis
Assay type: in vivo, Sprague Dawley rats
Details: rat, iv
Protocol: Male and female Sprague Dawley (SD) rats, ovariectomized (OVX) females, and castrated (CST) males were obtained from Charles River (Wilmington, MA, USA) at 8 weeks of age. The animals were housed under controlled temperature and humidity with an artificial 12 h light/dark cycle, and food and water were available ad libitum. The animals were acclimatized for at least one week before experiments. Hormone treatment was conducted by implanting OVX female and CST male rats subcutaneously with 60-day release pellets containing 7.5 mg testosterone or corresponding placebo pellets (Innovative Research of America) at 10 weeks of age. After 21 days of hormone exposure, rats were utilized in toxicokinetic studies. Age-matched male and female rats were used as control groups. Female rats in the estrus stage were selected for the study. Estrus cycle stages of female rats were monitored daily by vaginal lavage smear, as described in previously published literature. The Institutional Animal Care and Use Committee (IACUC) at the University of the Pacific approved all experiments.
Jugular vein cannulas were surgically implanted under anesthesia with ketamine/xylazine. Cannulas were flushed daily with heparinized saline to maintain patency. Rats were allowed a minimum of 72 h for recovery from surgery before the experiments were conducted. GHB was administered intravenously as a 1000 mg/kg i.v. bolus or 1500 mg/kg iv bolus with or without AR-C155858 (1 mg/kg i.v. bolus) via a jugular vein cannula to the animals at 13 weeks of age (N = 5–7 per group). Rats were dosed in metabolic cages with ad libitum access to water to allow for the concurrent collection of blood and urine samples for up to 8 h. GHB was administered as a 300 mg/mL solution in sterile water, and the time of administration was considered as time 0. AR-C155858 was administered as a 1 mg/mL solution in 10% cyclodextrin in normal saline 5 min after GHB administration. Blood samples (200 μL) were taken from the jugular vein cannula at different time points: 5, 10, 20, 30, 60, 90, 120, 180, 240, 270, 300, and 330 min for 1000 mg/kg and 10, 30, 60, 90, 120, 180, 240, 270, 300, 330, 360, and 390/480 min for 1500 mg/kg bolus with or without AR-C155858. Plasma samples were separated by centrifugation and stored at −20 °C. Urine samples were collected at 120, 240, and 360 min for 1000 mg/kg and 120, 240, and 390/480 min for 1500 mg/kg bolus with or without AR-C155858 post-dose; the total urine volume was determined, and the samples were stored at −20 °C.
GHB in plasma and urine were quantified using a validated liquid chromatography/tandem mass spectrometry (LC/MS/MS) assay that was described previously. Briefly, for the preparation of plasma standards and quality controls (QCs), 5 μL of GHB-d6 and 5 μL of standard stock solution or QC stock solution were added to 45 μL of blank plasma. For each unknown plasma sample, 5 μL of GHB-d6 was added to 50 μL of plasma. Protein precipitation was then performed by the addition of 800 μL of acetonitrile with 0.1% formic acid, followed by centrifugation at 10,000 rpm for 20 min. 750 μL of the supernatant was transferred to a clean disposable glass tube and evaporated using a MultiVap Nitrogen Evaporator (Organomation, Berlin, MA, USA) under a nitrogen stream. Dried samples were reconstituted in 250 μL of 95:5 double-distilled water—acetonitrile with 0.1% acetic acid. For urine standards and QCs, 25 μL of blank urine, 5 μL of standard or QC stock solution, 5 μL of GHB-d6, and 465 μL of double-distilled water were mixed. For unknown urine samples, 25 μL of the sample was added to 5 μL of GHB-d6 and 470 μL of double-distilled water. The same LC/MS/MS method was used for GHB plasma and urine analyses. LC/MS/MS equipment consisted of an Agilent 1200 series UPLC consisting of an online degasser, binary pump, and autosampler (Agilent Technologies, Santa Clara, CA, USA) connected to a Agilent 6460 Triple Quad Mass Spectrometer. […]

In the case of `O=C(O)CCCO` [GHB, Γ-hydroxybutyric acid], the clearance (female, Sprague Dawley, plasma and urine, 1000 mg/kg, 1000 mg/kg GHB iv, intact female (estrus) rats, read-out: CLm – Metabolic clearance) is reported as 4.1 ± 0.6 mL/min/kg, the CL renal (female, Sprague Dawley, plasma and urine, 1500 mg/kg, 1500 mg/kg GHB iv, OVX testosterone placebo rats, read-out: CLR (renal clearance)) is reported as 3.5 ± 0.5 mL/min/kg and the CL renal (female, Sprague Dawley, plasma and urine, 1500 mg/kg, 1500 mg/kg GHB iv, OVX testosterone rats, read-out: CLR (renal clearance)) is reported as 2.7 ± 1.5 mL/min/kg. For the same molecule, the CL renal (female, Sprague Dawley, plasma and urine, 1500 mg/kg, 1500 mg/kg GHB iv, intact female (estrus) rats, read-out: CLR (renal clearance)) was 3.7 ± 1.1 mL/min/kg, the clearance (female, Sprague Dawley, plasma, 1000 mg/kg, 1000 mg/kg GHB iv, OVX testosterone placebo rats, read-out: CL - Total clearance) was 5.5 ± 0.3 mL/min/kg and the clearance (female, Sprague Dawley, plasma, 1000 mg/kg, 1000 mg/kg GHB iv, intact female (estrus) rats, read-out: CL - Total clearance) was 6.8 ± 0.7 mL/min/kg. It also gave a clearance (female, Sprague Dawley, plasma, 1500 mg/kg, 1500 mg/kg GHB iv, intact female (estrus) rats, read-out: CL (total clearance)) of 4.7 ± 1.1 mL/min/kg, a CL renal (female, Sprague-Dawley, plasma and urine, 1500 mg/kg, 1500 mg/kg GHB + 1mg/kg AR-C 155858 iv, OVX testosterone placebo rats, read-out: CLR (renal clearance)) of 7 ± 1.4 mL/min/kg and a clearance (female, Sprague-Dawley, plasma and urine, 1500 mg/kg, 1500 mg/kg GHB + 1mg/kg AR-C 155858 iv, OVX testosterone placebo rats, read-out: CLm (metabolic clearance)) of 2.7 ± 0.9 mL/min/kg. The CL renal (female, Sprague-Dawley, plasma and urine, 1500 mg/kg, 1500 mg/kg GHB + 1mg/kg AR-C 155858 iv, OVX testosterone rats, read-out: CLR (renal clearance)) was 7 ± 0.9 mL/min/kg, the clearance (female, Sprague-Dawley, plasma and urine, 1500 mg/kg, 1500 mg/kg GHB + 1mg/kg AR-C 155858 iv, OVX testosterone rats, read-out: CLm (metabolic clearance)) was 2.4 ± 1.3 mL/min/kg and the CL renal (female, Sprague-Dawley, plasma and urine, 1500 mg/kg, 1500 mg/kg GHB + 1mg/kg AR-C 155858 iv, intact female (estrus) rats, read-out: CLR (renal clearance)) was 6.3 ± 1.8 mL/min/kg. It also gave a clearance (female, Sprague-Dawley, plasma and urine, 1500 mg/kg, 1500 mg/kg GHB + 1mg/kg AR-C 155858 iv, intact female (estrus) rats, read-out: CLm (metabolic clearance)) of 2.2 ± 0.4 mL/min/kg, a clearance (female, Sprague-Dawley, plasma, 1500 mg/kg, 1500 mg/kg GHB + 1mg/kg AR-C 155858 iv, OVX testosterone placebo rats, read-out: CL (total clearance)) of 9.7 ± 2.1 mL/min/kg and a clearance (female, Sprague-Dawley, plasma, 1500 mg/kg, 1500 mg/kg GHB + 1mg/kg AR-C 155858 iv, OVX testosterone rats, read-out: CL (total clearance)) of 9.4 ± 1.4 mL/min/kg. The clearance (female, Sprague-Dawley, plasma, 1500 mg/kg, 1500 mg/kg GHB + 1mg/kg AR-C 155858 iv, intact female (estrus) rats, read-out: CL (total clearance)) was 8.5 ± 1.9 mL/min/kg, the clearance (female, Sprague-Dawley, plasma, 1500 mg/kg, 1500 mg/kg GHB iv, OVX testosterone placebo rats, read-out: CL (total clearance)) was 5.7 ± 0.9 mL/min/kg and the CL renal (male, Sprague Dawley, plasma and urine, 1000 mg/kg, 1000 mg/kg GHB iv, CST testosterone placebo rats, read-out: CLR - Renal clearance) was 3 ± 0.7 mL/min/kg. For the same molecule, the clearance (male, Sprague Dawley, plasma and urine, 1000 mg/kg, 1000 mg/kg GHB iv, CST testosterone placebo rats, read-out: CLm – Metabolic clearance) was 1.6 ± 0.5 mL/min/kg, the clearance (male, Sprague Dawley, plasma and urine, 1000 mg/kg, 1000 mg/kg GHB iv, CST testosterone rats, read-out: CLm – Metabolic clearance) was 2.1 ± 0.4 mL/min/kg and the CL renal (male, Sprague Dawley, plasma and urine, 1000 mg/kg, 1000 mg/kg GHB iv, intact male rats, read-out: CLR - Renal clearance) was 2.2 ± 0.4 mL/min/kg. For the same molecule, the clearance (male, Sprague Dawley, plasma and urine, 1000 mg/kg, 1000 mg/kg GHB iv, intact male rats, read-out: CLm – Metabolic clearance) was 2.4 ± 0.5 mL/min/kg, the CL renal (male, Sprague Dawley, plasma and urine, 1500 mg/kg, 1500 mg/kg GHB iv, CST testosterone placebo rats, read-out: CLR (renal clearance)) was 2.9 ± 0.4 mL/min/kg and the CL renal (male, Sprague Dawley, plasma and urine, 1500 mg/kg, 1500 mg/kg GHB iv, intact male rats, read-out: CLR (renal clearance)) was 4.2 ± 1.3 mL/min/kg. It also gave a clearance (male, Sprague Dawley, plasma, 1000 mg/kg, 1000 mg/kg GHB iv, CST testosterone placebo rats, read-out: CL - Total clearance) of 4.6 ± 0.8 mL/min/kg, a clearance (male, Sprague Dawley, plasma, 1000 mg/kg, 1000 mg/kg GHB iv, CST testosterone rats, read-out: CL - Total clearance) of 5.3 ± 1 mL/min/kg and a clearance (male, Sprague Dawley, plasma, 1000 mg/kg, 1000 mg/kg GHB iv, intact male rats, read-out: CL - Total clearance) of 4.6 ± 0.8 mL/min/kg. For the same molecule, the clearance (male, Sprague Dawley, plasma, 1500 mg/kg, 1500 mg/kg GHB iv, intact male rats, read-out: CL (total clearance)) was 4.8 ± 1.4 mL/min/kg, the CL renal (male, Sprague-Dawley, plasma and urine, 1000 mg/kg, 1000 mg/kg GHB iv, CST testosterone rats, read-out: CLR - Renal clearance) was 3.2 ± 0.9 mL/min/kg and the CL renal (male, Sprague-Dawley, plasma and urine, 1500 mg/kg, 1500 mg/kg GHB + 1mg/kg AR-C 155858 iv, CST testosterone placebo rats, read-out: CLR (renal clearance)) was 5.4 ± 1.1 mL/min/kg. The clearance (male, Sprague-Dawley, plasma and urine, 1500 mg/kg, 1500 mg/kg GHB + 1mg/kg AR-C 155858 iv, CST testosterone placebo rats, read-out: CLm (metabolic clearance)) was 2.5 ± 1.3 mL/min/kg, the CL renal (male, Sprague-Dawley, plasma and urine, 1500 mg/kg, 1500 mg/kg GHB + 1mg/kg AR-C 155858 iv, CST testosterone rats, read-out: CLR (renal clearance)) was 5.6 ± 1.2 mL/min/kg and the clearance (male, Sprague-Dawley, plasma and urine, 1500 mg/kg, 1500 mg/kg GHB + 1mg/kg AR-C 155858 iv, CST testosterone rats, read-out: CLm (metabolic clearance)) was 1.9 ± 0.1 mL/min/kg. For the same molecule, the CL renal (male, Sprague-Dawley, plasma and urine, 1500 mg/kg, 1500 mg/kg GHB + 1mg/kg AR-C 155858 iv, intact male rats, read-out: CLR (renal clearance)) was 6.1 ± 0.5 mL/min/kg, the clearance (male, Sprague-Dawley, plasma and urine, 1500 mg/kg, 1500 mg/kg GHB + 1mg/kg AR-C 155858 iv, intact male rats, read-out: CLm (metabolic clearance)) was 2.1 ± 0.3 mL/min/kg and the CL renal (male, Sprague-Dawley, plasma and urine, 1500 mg/kg, 1500 mg/kg GHB iv, CST testosterone rats, read-out: CLR (renal clearance)) was 1.4 ± 0.6 mL/min/kg. The clearance (male, Sprague-Dawley, plasma, 1500 mg/kg, 1500 mg/kg GHB + 1mg/kg AR-C 155858 iv, CST testosterone placebo rats, read-out: CL (total clearance)) was 7.9 ± 1.2 mL/min/kg, the clearance (male, Sprague-Dawley, plasma, 1500 mg/kg, 1500 mg/kg GHB + 1mg/kg AR-C 155858 iv, CST testosterone rats, read-out: CL (total clearance)) was 7.5 ± 1.4 mL/min/kg and the clearance (male, Sprague-Dawley, plasma, 1500 mg/kg, 1500 mg/kg GHB + 1mg/kg AR-C 155858 iv, intact male rats, read-out: CL (total clearance)) was 8.2 ± 0.6 mL/min/kg. For the same molecule, the clearance (male, Sprague-Dawley, plasma, 1500 mg/kg, 1500 mg/kg GHB iv, CST testosterone placebo rats, read-out: CL (total clearance)) was 4.9 ± 0.4 mL/min/kg and the clearance (male, Sprague-Dawley, plasma, 1500 mg/kg, 1500 mg/kg GHB iv, CST testosterone rats, read-out: CL (total clearance)) was 3.2 ± 0.7 mL/min/kg.
